# Source: patent US11186592B2, “Thiazolopyridine derivatives as adenosine receptor antagonists” (MERCK PATENT GMBH, priority 2017, dated 2021)
# Key:
# Type in all cases: cell-based
# [1] = molecular target: T1, human A2B receptor (Homo sapiens, UniProt P29275); experiment: cAMP (HTRF) functional assay, recombinant HEK293 cells expressing human A2B receptor, agonist NECA
# T1 construct: expressed in transfected cells; host or cells: HEK293
# T1 sequence (P29275 1-332): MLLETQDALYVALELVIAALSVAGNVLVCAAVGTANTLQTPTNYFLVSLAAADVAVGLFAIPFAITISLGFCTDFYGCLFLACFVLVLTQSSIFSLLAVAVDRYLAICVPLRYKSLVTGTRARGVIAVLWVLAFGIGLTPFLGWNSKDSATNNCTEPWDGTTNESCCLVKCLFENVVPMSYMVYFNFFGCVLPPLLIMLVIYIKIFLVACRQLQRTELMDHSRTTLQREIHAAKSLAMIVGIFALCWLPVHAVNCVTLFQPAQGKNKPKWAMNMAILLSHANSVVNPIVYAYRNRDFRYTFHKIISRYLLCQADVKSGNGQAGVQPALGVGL
# Experimental: (§1) The functional activities of human A2A, A2B, A1 and A3 receptors were determined by quantification of cAMP, being the second messenger for adenosine receptors.
# (§2) Cells were seeded into 384-well plates, forskolin, test compounds and agonists (CPA for A1- and IB-MECA for A3-receptor) were added. After 30 min incubation, HTRF reagents (cAMP dynamic 2, Cis Bio) were added and the cellular cAMP levels were determined using the ENVISION (Perkin Elmer) plate reader. Obtained raw data were normalized against the inhibitor control and the neural control (DMSO) and the normalized data were fitted using GeneData software.
# [2] = molecular target: T2, human A2A receptor (Homo sapiens, UniProt P29274); experiment: cAMP (HTRF) functional assay, recombinant HEK293 cells expressing human A2A receptor, agonist NECA
# T2 construct: expressed in transfected cells; host or cells: HEK293
# Experimental: as §1, §2
# [3] = molecular target: T3, human A1 receptor (Homo sapiens, UniProt P30542); experiment: cAMP (HTRF) functional assay, recombinant CHO cells expressing human A1 receptor, forskolin + agonist CPA
# T3 construct: expressed in transfected cells; host or cells: CHO
# T3 sequence (P30542 1-326): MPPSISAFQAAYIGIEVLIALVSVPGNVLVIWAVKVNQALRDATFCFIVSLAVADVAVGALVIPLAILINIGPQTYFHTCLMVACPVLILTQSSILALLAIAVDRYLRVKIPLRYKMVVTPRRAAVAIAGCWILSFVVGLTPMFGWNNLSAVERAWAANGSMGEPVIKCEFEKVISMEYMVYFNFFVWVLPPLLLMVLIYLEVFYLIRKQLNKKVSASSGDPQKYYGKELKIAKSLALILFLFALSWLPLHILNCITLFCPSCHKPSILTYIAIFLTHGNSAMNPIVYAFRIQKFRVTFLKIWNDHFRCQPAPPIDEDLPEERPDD
# Experimental: as §1
# For human A1 and A3 receptors, recombinant CHO cells, expressing either A1 or A3-receptor, were used. As both receptors couple to Gi proteins, the assay protocol was adapted:
# as §2
# T2 sequence (P29274 whole entry): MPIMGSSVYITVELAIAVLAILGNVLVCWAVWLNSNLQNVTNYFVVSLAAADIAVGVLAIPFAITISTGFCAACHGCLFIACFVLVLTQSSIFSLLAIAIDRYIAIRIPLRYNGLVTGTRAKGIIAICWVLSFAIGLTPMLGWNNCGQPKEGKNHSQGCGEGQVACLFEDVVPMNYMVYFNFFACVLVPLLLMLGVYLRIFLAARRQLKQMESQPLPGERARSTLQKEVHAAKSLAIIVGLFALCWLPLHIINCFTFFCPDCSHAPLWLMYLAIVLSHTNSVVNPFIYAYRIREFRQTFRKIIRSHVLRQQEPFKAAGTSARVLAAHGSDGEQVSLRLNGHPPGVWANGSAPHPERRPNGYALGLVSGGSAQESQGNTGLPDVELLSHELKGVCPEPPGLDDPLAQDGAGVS
Structure (SMILES),IC50 [1] [nM],IC50 [2] [nM],IC50 [3] [nM]
"COc1ncc(C2CCOCC2)c2sc(NC(=O)c3cnc(C)o3)nc12 [compound 147, 2-Methyl-oxazole-5-carboxylic acid [4-methoxy-7-(tetrahydro-pyran-4-yl)-thiazolo[4,5-c]pyridin-2-yl]-amide]",< 100,< 10,> 1000
"COc1ncc(N2CCOCC2)c2sc(NC(=O)N3CC[C@@]4(CCCOC4)C3)nc12 [compound 168, (S)-7-Oxa-2-aza-spiro[4.5]decane-2-carboxylic acid (4-methoxy-7-morpholin-4-yl-thiazolo[4,5-c]pyridin-2-yl)-amide]",< 100,< 10,–
"COc1ncc(N2CCOCC2)c2sc(NC(=O)c3ccc(CN4CCCC4=O)cc3)nc12 [compound 170, N-(4-Methoxy-7-morpholin-4-yl-thiazolo[4,5-c]pyridin-2-yl)-4-(2-oxo-pyrrolidin-1-ylmethyl)-benzamide]",< 100,< 10,–
"COc1ncc(-c2cnn(C)c2)c2sc(NC(=O)N3CC[C@]4(CCCOC4)C3)nc12 [compound 177, (R)-7-Oxa-2-aza-spiro[4.5]decane-2-carboxylic acid [4-methoxy-7-(1-methyl-1H-pyrazol-4-yl)-thiazolo[4,5-c]pyridin-2-yl]-amide]",< 100,< 10,> 1000
"COc1ncc(C2CCOCC2)c2sc(NC(=O)c3ccc(CN4CCCC4=O)cc3)nc12 [compound 180, N-[4-Methoxy-7-(tetrahydro-pyran-4-yl)-thiazolo[4,5-c]pyridin-2-yl]-4-(2-oxo-pyrrolidin-1-ylmethyl)-benzamide]",< 100,< 10,< 1000
"COc1ncc(-c2ccc(F)cc2)c2sc(NC(=O)N3CCC4(CCOCC4)C3)nc12 [compound 193, 8-Oxa-2-aza-spiro[4.5]decane-2-carboxylic acid [7-(4-fluoro-phenyl)-4-methoxy-thiazolo[4,5-c]pyridin-2-yl]-amide]",< 100,< 10,> 1000
"COc1ncc(-c2ccccc2)c2sc(NC(=O)N3CCC4(CCCC4N)CC3)nc12 (stereo not shown) [compound 201, 1-amino-N-{4-methoxy-7-phenyl-[1,3]thiazolo[4,5-c]pyridin-2-yl}-8-azaspiro[4.5]decane-8-carboxamide]",< 100,< 10,–
"COc1ncc(-c2ccncc2)c2sc(NC(=O)c3ccc(C(=O)N(C)C)cc3)nc12 [compound 219, N-(4-Methoxy-7-pyridin-4-yl-thiazolo[4,5-c]pyridin-2-yl)-N′,N′-dimethyl-terephthalamide]",< 100,< 10,> 1000
"COc1nc(F)c(-c2ccccc2)c2sc(NC(=O)N3CCC4(CCOCC4)C3)nc12 [compound 229, 8-Oxa-2-aza-spiro[4.5]decane-2-carboxylic acid (6-fluoro-4-methoxy-7-phenyl-thiazolo[4,5-c]pyridin-2-yl)-amide]",< 10,< 10,–
"COc1ncc(C2=CCOCC2)c2sc(NC(=O)N3CCC4(CCOCC4)C3)nc12 [compound 237, 8-Oxa-2-aza-spiro[4.5]decane-2-carboxylic acid [7-(3,6-dihydro-2H-pyran-4-yl)-4-methoxy-thiazolo[4,5-c]pyridin-2-yl]-amide]",< 10,< 10,< 1000

# The next lines start with the values.
IC50 [1] [nM],IC50 [2] [nM],IC50 [3] [nM],Structure (SMILES)
< 100,< 10,> 1000,"COc1ncc(-c2cnn(C)c2)c2sc(NC(=O)c3ccc(CN(C)C)cc3)nc12 [compound 22, 4-Dimethylaminomethyl-N-[4-methoxy-7-(1-methyl-1H-pyrazol-4-yl)-thiazolo[4,5-c]pyridin-2-yl]-benzamide]"
< 100,< 10,> 1000,"COc1ncc(C2CCOCC2)c2sc(NC(=O)c3ccc(CN(C)C)cc3)nc12 [compound 27, 4-Dimethylaminomethyl-N-[4-methoxy-7-(tetrahydro-pyran-4-yl)-thiazolo[4,5-c]pyridin-2-yl]-benzamide]"
< 100,< 10,> 1000,"COc1ncc(N2CCOCC2)c2sc(NC(=O)c3ccc(Cn4ccnc4)cc3)nc12 [compound 33, 4-Imidazol-1-ylmethyl-N-(4-methoxy-7-morpholin-4-yl-thiazolo[4,5-c]pyridin-2-yl)-benzamide]"
< 100,< 10,–,"COc1ncc(N2CCOCC2)c2sc(NC(=O)N3CCC4(CCCOC4)C3)nc12 (stereo not shown) [compound 34, 7-Oxa-2-aza-spiro[4.5]decane-2-carboxylic acid (4-methoxy-7-morpholin-4-yl-thiazolo[4,5-c]pyridin-2-yl)-amide]"
< 100,< 10,< 1000,"COc1ncc(-c2ccccc2)c2sc(NC(=O)c3ccc(CN4CCCC4=O)cc3)nc12 [compound 62, N-(4-Methoxy-7-phenyl-thiazolo[4,5-c]pyridin-2-yl)-4-(2-oxo-pyrrolidin-1-ylmethyl)-benzamide]"
< 100,< 10,> 1000,"COc1ncc(-c2cnn(C)c2)c2sc(NC(=O)N3CCC4(CCCOC4)C3)nc12 (stereo not shown) [compound 80, 7-Oxa-2-aza-spiro[4.5]decane-2-carboxylic acid [4-methoxy-7-(1-methyl-1H-pyrazol-4-yl)-thiazolo[4,5-c]pyridin-2-yl]-amide]"
< 100,< 10,> 1000,"COc1ncc(-c2cnn(C)c2)c2sc(NC(=O)N3CCC4(CCOCC4)C3)nc12 [compound 81, 8-Oxa-2-aza-spiro[4.5]decane-2-carboxylic acid [4-methoxy-7-(1-methyl-1H-pyrazol-4-yl)-thiazolo[4,5-c]pyridin-2-yl]-amide]"
< 100,< 10,> 1000,"COc1ncc(-c2cnn(C)c2)c2sc(NC(=O)N3CC[C@@]4(CCOC4)C3)nc12 [compound 172, (R)-2-Oxa-7-aza-spiro[4.4]nonane-7-carboxylic acid [4-methoxy-7-(1-methyl-1H-pyrazol-4-yl)-thiazolo[4,5-c]pyridin-2-yl]-amide]"
< 100,< 10,> 1000,"COc1ncc(-c2cnn(C)c2)c2sc(NC(=O)N3CC[C@@]4(CCCOC4)C3)nc12 [compound 176, (S)-7-Oxa-2-aza-spiro[4.5]decane-2-carboxylic acid [4-methoxy-7-(1-methyl-1H-pyrazol-4-yl)-thiazolo[4,5-c]pyridin-2-yl]-amide]"
< 100,< 10,< 1000,"COc1ncc(C2CCOCC2)c2sc(NC(=O)c3cnc(C)s3)nc12 [compound 181, 2-Methyl-thiazole-5-carboxylic acid [4-methoxy-7-(tetrahydro-pyran-4-yl)-thiazolo[4,5-c]pyridin-2-yl]-amide]"
< 100,< 10,> 1000,"COc1ncc(-c2ccncc2)c2sc(NC(=O)N3CCC4(CCOCC4)C3)nc12 [compound 212, 8-Oxa-2-aza-spiro[4.5]decane-2-carboxylic acid (4-methoxy-7-pyridin-4-yl-thiazolo[4,5-c]pyridin-2-yl)-amide]"
< 100,< 10,> 1000,"COc1ncc(N2CCOCC2)c2sc(NC(=O)c3ccc(N4C(=O)CCC4=O)cc3)nc12 [compound 214, 4-(2,5-Dioxo-pyrrolidin-1-yl)-N-(4-methoxy-7-morpholin-4-yl-thiazolo[4,5-c]pyridin-2-yl)-benzamide]"
< 100,< 10,> 1000,"COc1ncc(C2CCOCC2)c2sc(NC(=O)N3CCC4(CCOCC4)C3)nc12 [compound 232, 8-Oxa-2-aza-spiro[4.5]decane-2-carboxylic acid [4-methoxy-7-(tetrahydro-pyran-4-yl)-thiazolo[4,5-c]pyridin-2-yl]-amide]"
